Measured values as given in US8314112B2 (Novartis AG, priority 2008, dated 2012).

molecular target: T1, human ALK5 (kinase domain, ALK5 T204D) (Homo sapiens, UniProt P36897, T204D); experiment: ALK5 kinase assay ([33P] phosphate incorporation into casein); assay type: biochemical; details: casein substrate, 1 μM unlabelled ATP
T1 construct: The kinase domain of human ALK5 (amino acids 200-503); made in house; host or cells: insect cells (baculovirus)
T1 sequence (P36897 200-503 T204D): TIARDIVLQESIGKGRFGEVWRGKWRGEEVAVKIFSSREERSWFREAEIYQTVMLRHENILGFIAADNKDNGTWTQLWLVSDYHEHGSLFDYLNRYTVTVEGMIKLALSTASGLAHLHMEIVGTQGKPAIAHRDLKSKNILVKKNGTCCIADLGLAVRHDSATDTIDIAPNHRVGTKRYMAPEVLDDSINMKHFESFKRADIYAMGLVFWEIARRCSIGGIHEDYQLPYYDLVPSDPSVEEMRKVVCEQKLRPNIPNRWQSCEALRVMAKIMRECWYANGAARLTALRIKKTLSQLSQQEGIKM
In short: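 His-tagged human ALK5 T204D kinase domain (aa 200-503, constitutively active, baculovirus/insect-cell expressed), 50 ng/well, preincubated 10 min with compound and dephosphorylated casein (200 μg/well) in Tris pH 7.4/MgCl2/MnCl2. Reaction started with 1 μM ATP plus [33P]ATP, 50 min at room temperature, EDTA-stopped; casein-bound 33P counted by scintillation after filter capture.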

IC50 [nM] | Structure (SMILES)
8 | Cc1cccc(-c2nc(-c3cncc(-c4ccc(CN5CC[C@H](N(C)C)C5)cc4)c3)c3cc[nH]c3n2)n1 [Example 100, Dimethyl-[(S)-1-(4-{5-[2-(6-methyl-pyridin-2-yl)-7H-pyrrolo[2,3-d]pyrimidin-4-yl]-pyridin-3-yl}-benzyl)-pyrrolidin-3-yl]-amine]
31 | Cc1cccc(-c2nc(-c3cncc(-c4cccc(C5CCCN5)c4)c3)c3cc[nH]c3n2)n1 (centres unmarked) [Example 102, 2-(6-Methyl-pyridin-2-yl)-4-[5-(3-pyrrolidin-2-yl-phenyl)-pyridin-3-yl]-7H-pyrrolo[2,3-d]pyrimidine]
133 | CC(=O)N1CC=C(c2cncc(-c3nc(-c4cccc(C)n4)nc4[nH]ccc34)c2)CC1 [Example 103, 1-{5-[2-(6-Methyl-pyridin-2-yl)-7H-pyrrolo[2,3-d]pyrimidin-4-yl]-3′,6′-dihydro-2′H-[3,4′]bipyridinyl-1′-yl}-ethanone]
1030 | Cc1cccc(-c2nc(-c3cncc(-c4nnn[nH]4)c3)c3cc[nH]c3n2)n1 [Example 104, 2-(6-Methyl-pyridin-2-yl)-4-[5-(1H-tetrazol-5-yl)-pyridin-3-yl]-7H-pyrrolo[2,3-d]pyrimidine]
115 | CSc1cncc(-c2cc(-c3cccc(C)n3)nc3[nH]ccc23)c1 [Example 105, 6-(6-Methyl-pyridin-2-yl)-4-(5-methylsulfanyl-pyridin-3-yl)-1H-pyrrolo[2,3-b]pyridine]
66 | Cc1cccc(-c2cc(-c3cncc(N)c3)c3cc[nH]c3n2)n1 [Example 106, 5-[6-(6-Methyl-pyridin-2-yl)-1H-pyrrolo[2,3-b]pyridin-4-yl]-pyridin-3-ylamine]
43 | Cc1cccc(-c2cc(-c3cncc(O)c3)c3cc[nH]c3n2)n1 [Example 107, 5-[6-(6-Methyl-pyridin-2-yl)-1H-pyrrolo[2,3-b]pyridin-4-yl]-pyridin-3-ol]
4.6 | Cc1cccc(-c2cc(-c3cncc(-c4ccc(CN5CC[C@@H](N(C)C)C5)cc4)c3)c3cc[nH]c3n2)n1 [Example 108, Dimethyl-[(R)-1-(4-{5-[6-(6-methyl-pyridin-2-yl)-1H-pyrrolo[2,3-b]pyridin-4-yl]-pyridin-3-yl}-benzyl)-pyrrolidin-3-yl]-amine]
812 | Cc1cccc(-c2cc(-c3cncc(CO)c3)c3cc[nH]c3n2)n1 [Example 109, {5-[6-(6-Methyl-pyridin-2-yl)-1H-pyrrolo[2,3-b]pyridin-4-yl]-pyridin-3-yl}-methanol]
20 | Cc1cccc(-c2cc(-c3cncc(-c4ccc(CN5CC[C@H](N(C)C)C5)cc4)c3)c3cc[nH]c3n2)n1 [Example 110, Dimethyl-[(S)-1-(4-{5-[6-(6-methyl-pyridin-2-yl)-1H-pyrrolo[2,3-b]pyridin-4-yl]-pyridin-3-yl}-benzyl)-pyrrolidin-3-yl]-amine]
7 | Cc1cccc(-c2cc(-c3cncc(-c4ccc(C(C)N)cc4)c3)c3cc[nH]c3n2)n1 (centres unmarked) [Example 112, 1-(4-{5-[6-(6-Methyl-pyridin-2-yl)-1H-pyrrolo[2,3-b]pyridin-4-yl]-pyridin-3-yl}-phenyl)-ethylamine]
27 | Cc1cccc(-c2cc(-c3cncc(-c4cccc(C(C)(C)N)c4)c3)c3cc[nH]c3n2)n1 [Example 113, 1-Methyl-1-(3-{5-[6-(6-methyl-pyridin-2-yl)-1H-pyrrolo[2,3-b]pyridin-4-yl]-pyridin-3-yl}-phenyl)-ethylamine]
4.6 | Cc1cccc(-c2cc(-c3cncc(-c4ccc(C(C)(C)N)cc4)c3)c3cc[nH]c3n2)n1 [Example 114, 1-Methyl-1-(4-{5-[6-(6-methyl-pyridin-2-yl)-1H-pyrrolo[2,3-b]pyridin-4-yl]-pyridin-3-yl}-phenyl)-ethylamine]
1150 | Cc1cccc(-c2nc(-c3cncc(-c4ccc5c(c4)CCNC5)c3)c3cc[nH]c3n2)n1 [Example 115, 6-{5-[2-(6-Methyl-pyridin-2-yl)-7H-pyrrolo[2,3-d]pyrimidin-4-yl]-pyridin-3-yl}-1,2,3,4-tetrahydro-isoquinoline]
15 | Cc1cccc(-c2nc(-c3cncc(-c4cnn(C)c4)c3)c3cc[nH]c3n2)n1 [Example 117, 4-[5-(1-Methyl-1H-pyrazol-4-yl)-pyridin-3-yl]-2-(6-methyl-pyridin-2-yl)-7H-pyrrolo[2,3-d]pyrimidine]
3.9 | Cc1cccc(-c2nc(-c3cncc(-c4ccc5c(c4)CNCC5)c3)c3cc[nH]c3n2)n1 [Example 118, 7-{5-[2-(6-Methyl-pyridin-2-yl)-7H-pyrrolo[2,3-d]pyrimidin-4-yl]-pyridin-3-yl}-1,2,3,4-tetrahydro-isoquinoline]
292 | C#Cc1cncc(-c2nc(-c3cccc(C)n3)nc3[nH]ccc23)c1 [Example 119, 4-(5-Ethynyl-pyridin-3-yl)-2-(6-methyl-pyridin-2-yl)-7H-pyrrolo[2,3-d]pyrimidine]
3.6 | Cc1cccc(-c2cc(-c3cncc(-c4cccc(C5CCCN5)c4)c3)c3cc[nH]c3n2)n1 (centres unmarked) [Example 120, 6-(6-Methyl-pyridin-2-yl)-4-[5-(3-pyrrolidin-2-yl-phenyl)-pyridin-3-yl]-1H-pyrrolo[2,3-b]pyridine]
65 | CC(=O)N1CC=C(c2cncc(-c3cc(-c4cccc(C)n4)nc4[nH]ccc34)c2)CC1 [Example 121, 1-{5-[6-(6-Methyl-pyridin-2-yl)-1H-pyrrolo[2,3-b]pyridin-4-yl]-3′,6′-dihydro-2′H-[3,4′]bipyridinyl-1′-yl}-ethanone]
45 | Cc1cccc(-c2nc(-c3cncc(C#CCN4CCN(C)CC4)c3)c3cc[nH]c3n2)n1 [Example 122, 4-{5-[3-(4-methyl-piperazin-1-yl)-prop-1-ynyl]-pyridin-3-yl}-2-(6-methyl-pyridin-2-yl)-7H-pyrrolo[2,3-d]pyrimidine]
4.4 | Cc1cccc(-c2cc(-c3cncc(-c4cnn(C)c4)c3)c3cc[nH]c3n2)n1 [Example 123, 4-[5-(1-Methyl-1H-pyrazol-4-yl)-pyridin-3-yl]-6-(6-methyl-pyridin-2-yl)-1H-pyrrolo[2,3-b]pyridine]
11 | Cc1cccc(-c2nc(-c3cncc(-c4ccc(CN(C)C)cn4)c3)c3cc[nH]c3n2)n1 [Example 124, Dimethyl-{5′-[2-(6-methyl-pyridin-2-yl)-7H-pyrrolo[2,3-d]pyrimidin-4-yl]-[2,3′]bipyridinyl-5-ylmethyl}-amine]
8 | Cc1cccc(-c2cc(-c3cncc(-c4ccc(CN(C)C)cn4)c3)c3cc[nH]c3n2)n1 [Example 125, Dimethyl-{5′-[6-(6-methyl-pyridin-2-yl)-1H-pyrrolo[2,3-b]pyridin-4-yl]-[2,3′]-5-ylmethyl}-amine]
229 | Cc1cccc(-c2nc(-c3cncc4c3CCCO4)c3cc[nH]c3n2)n1 [Example 126, 5-[2-(6-Methyl-pyridin-2-yl)-7H-pyrrolo[2,3-d]pyrimidin-4-yl]-3,4-dihydro-2H-pyrano[2,3-c]pyridine]
17 | Cc1cccc(-c2cc(-c3cncc(-c4ccc([C@H](C)N)cc4)c3)c3cc[nH]c3n2)n1 [Example 127, (S)-1-(4-{5-[6-(6-Methyl-pyridin-2-yl)-1H-pyrrolo[2,3-b]pyridin-4-yl]-pyridin-3-yl}-phenyl)-ethylamine]
13 | Cc1cccc(-c2cc(-c3cncc(-c4ccc([C@@H](C)N)cc4)c3)c3cc[nH]c3n2)n1 [Example 128, (R)-1-(4-{5-[6-(6-Methyl-pyridin-2-yl)-1H-pyrrolo[2,3-b]pyridin-4-yl]-pyridin-3-yl}-phenyl)-ethylamine]
16 | Cc1cccc(-c2cc(-c3cncc(C#CCN4CCN(C)CC4)c3)c3cc[nH]c3n2)n1 [Example 129, 4-{5-[3-(4-Methyl-piperazin-1-yl)-prop-1-ynyl]-pyridin-3-yl}-6-(6-methyl-pyridin-2-yl)-1H-pyrrolo[2,3-b]pyridine]
11 | Cc1cccc(-c2cc(-c3cncc(-c4cccc(CNCC(=O)O)c4)c3)c3cc[nH]c3n2)n1 [Example 130, (3-{5-[6-(6-Methyl-pyridin-2-yl)-1H-pyrrolo[2,3-b]pyridin-4-yl]-pyridin-3-yl}-benzylamino)-acetic acid]
10 | COC(=O)CNCc1cccc(-c2cncc(-c3cc(-c4cccc(C)n4)nc4[nH]ccc34)c2)c1 [Example 131, (3-{5-[6-(6-Methyl-pyridin-2-yl)-1H-pyrrolo[2,3-b]pyridin-4-yl]-pyridin-3-yl}-benzylamino)-acetic acid methyl ester]

Structure (SMILES) | IC50 [nM]
Cc1cccc(-c2nc(-c3cncc(C4=CCNCC4)c3)c3cc[nH]c3n2)n1 [Example 101, 5-[2-(6-Methyl-pyridin-2-yl)-7H-pyrrolo[2,3-d]pyrimidin-4-yl]-1′,2′,3′,6′-tetrahydro-[3,4′]bipyridinyl] | 437
Cc1cccc(-c2cc(-c3cncc(C4=CCNCC4)c3)c3cc[nH]c3n2)n1 [Example 111, 5-[6-(6-Methyl-pyridin-2-yl)-1H-pyrrolo[2,3-b]pyridin-4-yl]-1′,2′,3′,6′-tetrahydro-[3,4′]bipyridinyl] | 42
Cc1cccc(-c2nc(-c3cncc(C4=CCN(C)CC4)c3)c3cc[nH]c3n2)n1 [Example 116, 1′-Methyl-5-[2-(6-methyl-pyridin-2-yl)-7H-pyrrolo[2,3-d]pyrimidin-4-yl]-1′,2′,3′,6′-tetrahydro-[3,4′]bipyridinyl] | 532
